According to patent US20250188075A1, “SUBSTITUTED HETEROCYCLIC CSNK1 INHIBITORS” (The Broad Institute, Inc., priority 2022, published 2025):
Like-named read-outs stand apart in the source and are kept apart here.

Legend:
LoVo cells = test: LoVo cell proliferation assay, CTG method; format: cell-based; conditions: 96 h, median, read-out: 2D-PROLI LoVo CTG 96 h, IC50 - [mol/l] (median)
Experimental: CELL PROLIFERATION ASSAY CTG METHOD, 384-well version: Day 1: plate 400 cells/30 μL/well in growth medium (RPMI 1640 (Gibco #61870-10; with Glutamax)+10% FBS) in 384-well black plates (Corning #3571). Plated sister wells in a separate plate for time zero determination. Incubated all plates overnight at 37° C. Day 2: added test compounds in serial dilutions using the HP D300 Digital Dispenser and incubate at 37° C. for 96 h. Measured time zero plate: add 30 μL/well CTG solution (Promega CellTiter-Glo solution (catalog #G7573)) to wells in time zero plate; incubated for 2 minutes in a orbital shaker to induce cell lysis; allowed the plate to incubate at room temperature for additional 10 min to stabilize luminescent signal and read luminescence on PheraStar (rapid mode-0.02 sec/well; GAIN 3000). Day 6: Added 30 μL/well CTG solution to all test wells, incubated for 2 minutes in a orbital shaker to induce cell lysis; allowed the plate to incubate at room temperature for additional 10 min to stabilize luminescent signal and read luminescence on PheraStar (rapid mode-0.02 sec/well; GAIN 3000). Proliferation IC50s were calculated using the DRC application in ShiNy Analysis Platform-SNAP.”

human CSNK1D = human CSNK1D (Homo sapiens (Human), UniProt P48730); test: CSNK1D assay (ADP-Glo, 1 μM ATP); format: biochemical; conditions: median, read-out: CSNK1D IC50 [mol/l] (median)
Experimental: CSNK1D-inhibitory activity of compounds of the present invention in presence of 1 μM adenosine-tri-phosphate (ATP) was quantified employing the CSNK1D assay as described in the following paragraphs. In essence, the enzyme activity is measured by quantification of the adenosine-di-phosphate (ADP), which is generated as a co-product of the enzyme reaction, via the “ADP-Glo™ Kinase Assay” kit from the company Promega. This detection system works as follows: In a first step the ATP not consumed in the kinase reaction is quantitatively converted to CAMP employing an adenylate cyclase (“ADP-Glo-reagent”), then the adenylate cyclase is stopped and the ADP generated in the kinase reaction converted to ATP which generates in a luciferase-based reaction a glow-luminescence signal (“Kinase Detection Reagent”).
Recombinant fusion protein of N-terminal Glutathion-S-Transferase (GST) and full-length human CSNK1D, expressed by baculovirus infected insect cells and purified via Glutathion affinity chromatography, was purchased from Life Technologies (product no. PV3665) and used as enzyme. As substrate for the kinase reaction the biotinylated peptide Btn-Ahx-SGSEGDSESGEEEG (C-terminus in amide form) was used which can be purchased e.g. from the company Biosyntan (Berlin-Buch, Germany).
For the assay 50 nl of a 100-fold concentrated solution of the test compound in DMSO was pipetted into a white 1536-well microtiter plate (Greiner Bio-One, Frickenhausen, Germany), 2 μL of a solution of CSNK1D in aqueous assay buffer [50 mM HEPES pH 7.5, 10% (v/v) glycerol, 10 mM MgCl2, 50 mM NaCl, 1 mM dithiothreitol, 0.01% (w/v) bovine serum albumin, 0.01% (v/v) Triton X-100] were added and the mixture was incubated for 15 min at 22° C. to allow pre-binding of the test compounds to the enzyme before the start of the kinase reaction. Then the kinase reaction was started by the addition of 3 μL of a solution of ATP (1.67 μM=>final conc. in the 5 μL assay volume is 1 μM) and peptide substrate (50 μM=>final conc. in the 5 μL assay volume is 30 μM) in assay buffer and the resulting mixture was incubated for a reaction time of 30 min at 22° C. The concentration of CSNK1D was adjusted depending of the activity of the enzyme lot and was chosen appropriate to have the assay in the linear range, a typical concentration is about 0.5 ng/μL. The reaction was stopped by the addition of 2.5 μL of “ADP-Glo-reagent” (1:1.5 fold diluted with water) and the resulting mixture was incubated at 22° C. for 1 h to convert the ATP not consumed in the kinase reaction completely to CAMP. Subsequently 2.5 μL of the “kinase detection reagent” (1.2 fold more concentrated than recommended by the producer) were added, the resulting mixture was incubated at 22° C. for 1 h and then the luminescence measured with a suitable measurement instrument (e.g. Viewlux™ from Perkin-Elmer). The amount of emitted light was taken as a measure for the amount of ADP generated and thereby for the activity of the CSNK1D.
The data were normalised (enzyme reaction without inhibitor=0% inhibition, all other assay components but no enzyme=100% inhibition).

HT-29 cells = test: HT29 cell proliferation assay, CTG method; format: cell-based; conditions: HT-29, CTG, 96 h, median, read-out: 2D-PROLI HT-29 CTG 96 h, IC50 - [mol/l] (median)
Experimental: CELL PROLIFERATION ASSAY CTG METHOD, 384-well version: Day 1: plated 400 cells/30 μL/well in growth medium (DMEM/Ham's F12; (Biochrom; #FG 4815, mit stabilem Glutamin)+FCS (final: 10%); (Biochrom; #S 0415)) in 384-well black plates (Corning #3571). Plated sister wells in a separate plate for time zero determination. Incubated all plates overnight at 37° C. Day 2: added test compounds in serial dilutions using the HP D300 Digital Dispenser and incubated at 37° C. for 96 h. Measured time zero plate: add 30 μL/well CTG solution (Promega CellTiter-Glo solution (catalog #G7573)) to wells in time zero plate; incubated for 2 minutes in a orbital shaker to induce cell lysis; allowed the plate to incubate at room temperature for additional 10 min to stabilize luminescent signal and read luminescence on PheraStar (rapid mode—0.02 sec/well; GAIN 3000). Day 6: Added 30 μL/well CTG solution to all test wells, incubated for 2 minutes in a orbital shaker to induce cell lysis; allowed the plate to incubate at room temperature for additional 10 min to stabilize luminescent signal and read luminescence on PheraStar (rapid mode—0.02 sec/well; GAIN 3000 Proliferation IC50s were calculated using the DRC application in ShiNy Analysis Platform-SNAP.”

human CSNK1D, sequence (P48730 whole entry): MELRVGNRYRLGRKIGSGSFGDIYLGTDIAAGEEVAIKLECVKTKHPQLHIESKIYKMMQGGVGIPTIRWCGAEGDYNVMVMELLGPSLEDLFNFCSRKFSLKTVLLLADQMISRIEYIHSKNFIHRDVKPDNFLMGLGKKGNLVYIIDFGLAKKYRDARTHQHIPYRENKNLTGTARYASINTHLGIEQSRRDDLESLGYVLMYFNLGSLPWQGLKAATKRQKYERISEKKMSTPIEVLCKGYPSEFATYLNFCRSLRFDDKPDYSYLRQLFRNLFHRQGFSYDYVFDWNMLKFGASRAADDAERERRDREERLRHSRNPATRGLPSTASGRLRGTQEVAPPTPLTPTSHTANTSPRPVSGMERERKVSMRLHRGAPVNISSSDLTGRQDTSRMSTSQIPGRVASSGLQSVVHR

SMILES | IC50 (LoVo cells; Homo sapiens) | IC50 (human CSNK1D) | IC50 (HT-29 cells; Homo sapiens) | IC50 (LoVo cells) | IC50 (HT-29 cells)
O=C(Cc1ccns1)Nc1cc(-c2[nH]c3cccnc3c2-c2ccccn2)ccn1 [Example 22, 2-isothiazol-5-yl-N-[4-[3-(2-pyridyl)-^1H-pyrrolo[3,2-b]pyridin-2-yl]-2-pyridyl]acetamide] | 2 µM | 0.00484 µM | 0.337 µM | – | –
O=C(Cc1ccno1)Nc1cc(-c2[nH]c3cccnc3c2-c2ccccn2)ccn1 [Example 23, 2-isoxazol-5-yl-N-[4-[3-(2-pyridyl)-^1H-pyrrolo[3,2-b]pyridin-2-yl]-2-pyridyl]acetamide] | 5.41 µM | 0.00468 µM | 0.768 µM | – | –
Cc1ncc(CC(=O)Nc2cc(-c3[nH]c4cccnc4c3-c3ccccn3)ccn2)o1 [Example 24, 2-(2-methyloxazol-5-yl)-N-[4-[3-(2-pyridyl)-^1H-pyrrolo[3,2-b]pyridin-2-yl]-2-pyridyl]acetamide] | 2.38 µM | 0.00537 µM | 0.481 µM | – | –
Cc1nc(CC(=O)Nc2cc(-c3[nH]c4cccnc4c3-c3ccccn3)ccn2)co1 [Example 25, 2-(2-methyloxazol-4-yl)-N-[4-[3-(2-pyridyl)-^1H-pyrrolo[3,2-b]pyridin-2-yl]-2-pyridyl]acetamide] | 2.11 µM | 0.00844 µM | 0.63 µM | – | –
Cc1cc(CC(=O)Nc2cc(-c3[nH]c4cccnc4c3-c3ccccn3)ccn2)no1 [Example 26, 2-(5-methylisoxazol-3-yl)-N-[4-[3-(2-pyridyl)-^1H-pyrrolo[3,2-b]pyridin-2-yl]-2-pyridyl]acetamide] | 2.1 µM | 0.00664 µM | 0.466 µM | – | –
O=C(Cc1cc(C2CC2)on1)Nc1cc(-c2[nH]c3cccnc3c2-c2ccccn2)ccn1 [Example 27, 2-(5-cyclopropylisoxazol-3-yl)-N-[4-[3-(2-pyridyl)-^1H-pyrrolo[3,2-b]pyridin-2-yl]-2-pyridyl]acetamide] | 0.749 µM | 0.00638 µM | 0.338 µM | – | –
CC(C)n1ccc(CC(=O)Nc2cc(-c3[nH]c4cccnc4c3-c3ccccn3)ccn2)n1 [Example 28, 2-(1-isopropylpyrazol-3-yl)-N-[4-[3-(2-pyridyl)-^1H-pyrrolo[3,2-b]pyridin-2-yl]-2-pyridyl]acetamide] | 0.636 µM | 0.0063 µM | 0.314 µM | – | –
Cn1nc(CC(=O)Nc2cc(-c3[nH]c4cccnc4c3-c3ccccn3)ccn2)cc1C1CC1 [Example 29, 2-(5-cyclopropyl-1-methyl-pyrazol-3-yl)-N-[4-[3-(2-pyridyl)-^1H-pyrrolo[3,2-b]pyridin-2-yl]-2-pyridyl]acetamide] | 0.782 µM | 0.00648 µM | 0.34 µM | – | –
Cc1nocc1CC(=O)Nc1cc(-c2[nH]c3cccnc3c2-c2ccccn2)ccn1 [Example 30, 2-(3-methylisoxazol-4-yl)-N-[4-[3-(2-pyridyl)-^1H-pyrrolo[3,2-b]pyridin-2-yl]-2-pyridyl]acetamide] | 10.5 µM | 0.00669 µM | 1.65 µM | – | –
O=C(Nc1cc(-c2[nH]c3nccnc3c2-c2ccccn2)ccn1)[C@@H](CC(F)F)c1ccc(F)cc1 [Example C1, reference compound] | – | 0.00392 µM | – | 0.211 µM | 0.206 µM
O=C(Nc1cc(-c2[nH]c3ccc(F)nc3c2-c2ccccn2)ccn1)[C@@H](CC(F)F)c1ccc(F)cc1 [Example C2, reference compound] | – | 0.00226 µM | – | 0.115 µM | 0.0888 µM
O=C(Nc1cc(-c2[nH]c3c(OCC(F)F)ncnc3c2-c2ccccn2)ccn1)[C@@H](CC(F)F)c1ccc(F)cc1 [Example C3, reference compound] | – | 0.00327 µM | – | 0.115 µM | 0.11 µM
